Laboratory results taken from PubChem BioAssay (NCI).
Values joined by “and” are separate entries in the source; they are usually repeats but may differ in a detail not shown here. Equal values may be shown once.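 Values below derive from 48-hour exposures of cells grown in 96-well plates, with endpoints linearly interpolated between the two concentrations bracketing the appropriate inhibition level. GI50: concentration for 50% inhibition of growth. At the TGI there is no net growth.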

Tested on: P388 leukemia
Assay: NCI tumour cell line growth inhibition, 48 h

CC(C)CCCCCCCCCCCCC(=O)NCC(=O)NC1C(O)C(O)C(Nc2ncnc3nc[nH]c23)OC1C(O)CO (configuration not stated)
GI50: 5 nM
TGI: 6.16 nM and 5.07 nM
